Columns and labels:
Type in all cases: in vivo, human
[1] = system: hair growth; experiment: Six-month study of twenty volunteers, monthly self-reported hair growth questionnaires; conditions: for participants who noticed new hair growth: lotion applied to scalp at least once a day
Source text: In a systematic study of twenty volunteers, including 8 women, study participants self-reported hair regrowth metrics by answering questionnaires at the end of each month of treatment with Formula (I) over the course of six months. The mean age of participants was 54 years old (SD=11 years). Participants had no history of hair implants and had normal eating and sleeping patterns. Participants first read and signed an informed consent form in which they were informed about the hair regeneration product, a lotion comprising Formula (I). The information about Formula (I) included that Formula (I) was designed to increase hair growth, that it was based on natural compounds, and that use of the product would not lead to harmful effects. Participants received explicit instructions on how to use the product, were asked to apply the product at least once a day on their scalp, and were asked not to use any other hair growth or regeneration products for the 6-month duration of the study. […] During this session photos were taken to measure and count any increases in hair regrowth, and participants answered questionnaires that probed the effects using Formula (I). Questionnaires comprised 14 yes or no questions based on Barber's 1998 the hair growth questionnaire. Barber et al., A hair growth questionnaire for use in the evaluation of therapeutic effects in men, J. DERMATOLOGICAL TREATMENT, Vol. 9(3), pp. 181-86 (1998). The questions included: • Did you notice new hair growth during the past month? • Did you notice new hair growth since the start of treatment? • Did you notice any new hair loss during the past month? • Did you notice any new hair loss since the start of the treatment? • Did you notice more hair loss than before since the start of the treatment? • Did you notice that your hairs felt thicker during the past month? • Did you notice that your hairs felt thicker since the start of the treatment? • Did you notice that your hairs felt more healthy during the past month? • Did you notice that your hairs felt more healthy since the start of the treatment? • The tenth and eleventh questions asked whether hairs felt less fragile during the past month and since the start of the treatment. • The final questions asked whether participants had noticed their hair color increasing and whether it became less grey/white during the past month and since the start of the treatment.

[2] = system: hair growth; experiment: Six-month study, hair growth by digital analysis of photographs of a chosen spot
Source text: In a systematic study of twenty volunteers, including 8 women, study participants self-reported hair regrowth metrics by answering questionnaires at the end of each month of treatment with Formula (I) over the course of six months. The mean age of participants was 54 years old (SD=11 years). Participants had no history of hair implants and had normal eating and sleeping patterns. Participants first read and signed an informed consent form in which they were informed about the hair regeneration product, a lotion comprising Formula (I). The information about Formula (I) included that Formula (I) was designed to increase hair growth, that it was based on natural compounds, and that use of the product would not lead to harmful effects. Participants received explicit instructions on how to use the product, were asked to apply the product at least once a day on their scalp, and were asked not to use any other hair growth or regeneration products for the 6-month duration of the study. […] During this session photos were taken to measure and count any increases in hair regrowth, and participants answered questionnaires that probed the effects using Formula (I). […] Hair growth was measured by counting and estimating the total amount of thick/thin hairs on the specific spot, based on digital analysis of each photograph.

[3] = system: hair growth; experiment: Before/after photographs of individual subjects (FIG. 2, FIG. 11)
Source text: The subject in FIG. 2A starts out with a complete bald spot. […] Before treatment with Formula (I), the subject shown in FIG. 2C has dark, balding hair.

[4] = system: burn; experiment: Burned hands of a lab technician, one hand treated, other untreated; conditions: treated for one month; untreated hand developed calluses
Protocol: Along these lines, a lab technician who burned both hands, and hair regrowth at the site of the burn was assessed. One hand was treated for one month with a composition comprising Formula (I), and the other hand was left untreated. […] The untreated hand developed calluses instead.

[5] = system: collagen in sun damaged skin; experiment: Cosmetic collagen regeneration clinical trial, high-resolution ultrasound scanner images of skin; conditions: ultrasound images before and after treatment, sun damaged skin (FIG. 12A/12B)
Protocol: In yet further aspects of the inventive subject matter, cosmetic collagen regeneration effects of Formula (I) were assessed in a clinical trial run by Sempervivum, a medical esthetics company. Twenty-four volunteers (22 women and 2 men) participated in this study. Participants were on average 59 years old (Mean (M)=59 years, Standard Deviation (SD)=12 years). In this case, the age of the participants is 59 years with an average deviation of 12 years. Participants had no history of cosmetic surgery and stated to have normal eating and sleeping patterns. High-resolution ultrasound scanner images of collagen in sun damaged skin are shown in FIG. 12A (before treatment) and FIG. 12B (after treatment). […] It also appears that more interconnected collagen fibers are present in the dermis of the skin, and spots representing collagen seem to be more connected and closer to the epidermal layer.

[6] = over the course of treatment, questionnaires (FIG. 10)

CC1=CC2(C(C)C)CC(=C1)C2(C)C (centres unmarked) [Formula (I), 3,6,6-trimethyl-5-(propan-2-yl)bicyclo[3.1.1]hepta-1,3-diene]
participants who noticed new hair growth ([1]; after 1 month of treatment, self-reported): 47% | participants who noticed new hair growth ([1]; after 6 months of treatment, self-reported): 94% | participants who noticed an increase in hair loss ([1]; at some point during treatment, self-reported): 20% | overall effect on hair growth ([1]; conclusion from questionnaires and photo analyses, 6-month study): highly effective in stimulating hair growth | participants who noticed an increase in healthy hair, thicker hair and less fragile hair ([1]; during the last month of treatment and since the start of treatment, self-reported (FIG. 5)): 85-92% | hair color in participants with white/grey hair before treatment ([1]; last month of treatment and since start of treatment, self-reported (FIG. 6)): significant increase in color | amount of thick hair in participants with thin hair ([1]; over the course of treatment (FIG. 9)): significant increase in the amount of thick hair | amount of white hair in participants with white/grey hair [1, 6]: increased to a lesser extent | black hair as percent of total hair in participants with white/grey hair [1, 6]: increase in the percent of total hair that was black | participants who noticed that some new hairs fell out ([1]; over the whole course of the treatment, self-reported, alopecia patients excluded): 14% | increase in long fine and thick hairs in balding participants ([2]; after 6 months, photo analysis (FIG. 8)): triple to quadruple overall increases | hair growth in bald participants, including alopecia patients ([2]; photo analysis, participants initially with no hair at the probed place (FIG. 7)): both fine hairs and more thick hairs suddenly started to grow | hair regrowth at alopecia site, subject who lost all body hair after trauma ([3]; after 4 months of treatment (FIG. 11A/11B)): hair growth at the alopecia site | hair regrowth, subject with complete bald spot ([3]; after 6 months of treatment (FIG. 2A/2B)): white hair has grown into the bald spot | hair regrowth, subject with dark, balding hair ([3]; after 6 months of treatment (FIG. 2C/2D)): dark hair has begun to regrow | skin outcome of burned hand [4]: developed new smooth skin | collagen in skin after treatment [5]: significant increases in collagen

Source: patent US10434049B2, “Methods of producing compounds that stimulate hair regrowth, topical formulations, and methods of use” (Joventis S.A., priority 2013, dated 2019)
